Source: patent US9637473B2, “Acrylamide derivatives as antimalarial agents” (priority 2013, dated 2017)
Structures can show the parent of a compound that is named as a salt.

System: P. Falciparum NF54
Experiment: Plasmodium falciparum in vitro assay ([3H]-hypoxanthine incorporation)
Assay type: cell-based
Conditions: Plasmodium falciparum, Erythrocyte, P. Falciparum NF54, erythrocytic stages in human red blood cells, 50% human serum
Procedure, shortened: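 This in vitro antimalarial assay used P. falciparum erythrocytic stages cultured in human erythrocytes and measured [3H]-hypoxanthine incorporation. Radioactivity on the dried filters, placed in plastic foil with 10 mL scintillation fluid, was counted in a Betaplate liquid scintillation counter. Sigmoidal inhibition curves built in Microsoft Excel gave the IC50.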

IC50 [nM] | Compound
30 | CC(C)N1CCC(N(Cc2cccc(Nc3ccncc3)c2)C(=O)/C=C/c2ccc(C(F)(F)F)cc2)CC1 [Example 126, (E)-N-(1-Isopropyl-piperidin-4-yl)-N-[3-(pyridin-4-ylamino)-benzyl]-3-(4-trifluoromethyl-phenyl)-acrylamide formate]
184 | CC(C)N1CCC(N(Cc2cccc(N(C)c3ccncc3)n2)C(=O)/C=C/c2ccc(C(F)(F)F)cc2)CC1 [Example 127, (E)-N-(1-Isopropyl-piperidin-4-yl)-N-[6-(methyl-pyridin-4-yl-amino)-pyridin-2-ylmethyl]-3-(4-trifluoromethyl-phenyl)-acrylamide formate]
302 | Cc1cc(N(C)c2cccc(CN(C(=O)/C=C/c3ccc(C(F)(F)F)cc3)C3CCN(C(C)C)CC3)n2)ccn1 [Example 128, (E)-N-(1-Isopropyl-piperidin-4-yl)-N-{6-[methyl-(2-methyl-pyridin-4-yl)-amino]-pyridin-2-ylmethyl}-3-(4-trifluoromethyl-phenyl)-acrylamide formate]
21 | Cc1cc(Nc2cccc(CN(C(=O)/C=C/c3ccc(C(F)(F)F)cc3)C3CCN(C(C)C)CC3)n2)ccn1 [Example 129, (E)-N-(1-Isopropyl-piperidin-4-yl)-N-[6-(2-methyl-pyridin-4-ylamino)-pyridin-2-ylmethyl]-3-(4-trifluoromethyl-phenyl)-acrylamide formate]
42 | Cc1cnccc1Nc1cccc(CN(C(=O)/C=C/c2ccc(C(F)(F)F)cc2)C2CCN(C(C)C)CC2)n1 [Example 130, (E)-N-(1-Isopropyl-piperidin-4-yl)-N-[6-(3-methyl-pyridin-4-ylamino)-pyridin-2-ylmethyl]-3-(4-trifluoromethyl-phenyl)-acrylamide formate]
303 | CC(C)N1CCC(N(Cc2cccc(Nc3ccncc3F)n2)C(=O)/C=C/c2ccc(C(F)(F)F)cc2)CC1 [Example 131, (E)-N-[6-(3-Fluoro-pyridin-4-ylamino)-pyridin-2-ylmethyl]-N-(1-isopropyl-piperidin-4-yl)-3-(4-trifluoromethyl-phenyl)-acrylamide formate]
22 | CC(C)N1CCC(N(Cc2cccc(Nc3ccncc3)n2)C(=O)/C=C/c2ccc(C(F)(F)F)cc2)CC1 [Example 132, (E)-N-(1-Isopropyl-piperidin-4-yl)-N-[6-(pyridin-4-ylamino)-pyridin-2-ylmethyl]-3-(4-trifluoromethyl-phenyl)-acrylamide formate]
69 | CC(C)N1CCC(N(Cc2cncc(N(C)c3ccncc3)c2)C(=O)/C=C/c2ccc(C(F)(F)F)cc2)CC1 [Example 133, (E)-N-(1-Isopropyl-piperidin-4-yl)-N-[5-(methyl-pyridin-4-yl-amino)-pyridin-3-ylmethyl]-3-(4-trifluoromethyl-phenyl)-acrylamide formate]
213 | CC(C)N1CCC(N(Cc2cncc(N(C)c3cccnc3)c2)C(=O)/C=C/c2ccc(C(F)(F)F)cc2)CC1 [Example 134, (E)-N-(1-Isopropyl-piperidin-4-yl)-N-[5-(methyl-pyridin-3-yl-amino)-pyridin-3-ylmethyl]-3-(4-trifluoromethyl-phenyl)-acrylamide formate]
84 | Cc1cc(N(C)c2cncc(CN(C(=O)/C=C/c3ccc(C(F)(F)F)cc3)C3CCN(C(C)C)CC3)c2)ccn1 [Example 135, (E)-N-(1-Isopropyl-piperidin-4-yl)-N-{5-[methyl-(2-methyl-pyridin-4-yl)-amino]-pyridin-3-ylmethyl}-3-(4-trifluoromethyl-phenyl)-acrylamide formate]
80 | Cc1cc(Nc2cncc(CN(C(=O)/C=C/c3ccc(C(F)(F)F)cc3)C3CCN(C(C)C)CC3)c2)ccn1 [Example 136, (E)-N-(1-Isopropyl-piperidin-4-yl)-N-[5-(2-methyl-pyridin-4-ylamino)-pyridin-3-ylmethyl]-3-(4-trifluoromethyl-phenyl)-acrylamide formate]
47 | Cc1cnccc1Nc1cncc(CN(C(=O)/C=C/c2ccc(C(F)(F)F)cc2)C2CCN(C(C)C)CC2)c1 [Example 137, (E)-N-(1-Isopropyl-piperidin-4-yl)-N-[5-(3-methyl-pyridin-4-ylamino)-pyridin-3-ylmethyl]-3-(4-trifluoromethyl-phenyl)-acrylamide formate]
344 | CC(C)N1CCC(N(Cc2cncc(Nc3ccncc3F)c2)C(=O)/C=C/c2ccc(C(F)(F)F)cc2)CC1 [Example 138, (E)-N-[5-(3-Fluoro-pyridin-4-ylamino)-pyridin-3-ylmethyl]-N-(1-isopropyl-piperidin-4-yl)-3-(4-trifluoromethyl-phenyl)-acrylamide formate]
355 | CC(C)N1CCC(N(Cc2cncc(Nc3ccncn3)c2)C(=O)/C=C/c2ccc(C(F)(F)F)cc2)CC1 [Example 139, (E)-N-(1-Isopropyl-piperidin-4-yl)-N-[5-(pyrimidin-4-ylamino)-pyridin-3-ylmethyl]-3-(4-trifluoromethyl-phenyl)-acrylamide formate]
354 | CC(C)N1CCC(N(Cc2cncc(N(C)c3ccccn3)c2)C(=O)/C=C/c2ccc(C(F)(F)F)cc2)CC1 [Example 140, (E)-N-(1-Isopropyl-piperidin-4-yl)-N-[5-(methyl-pyridin-2-yl-amino)-pyridin-3-ylmethyl]-3-(4-trifluoromethyl-phenyl)-acrylamide formate]
82 | CC(C)N1CCC(N(Cc2cncc(Nc3ccncc3)c2)C(=O)/C=C/c2ccc(C(F)(F)F)cc2)CC1 [Example 141, (E)-N-(1-Isopropyl-piperidin-4-yl)-N-[5-(pyridin-4-ylamino)-pyridin-3-ylmethyl]-3-(4-trifluoromethyl-phenyl)-acrylamide formate]
27 | CC(C)N1CCC(N(Cc2cccc(N(C)c3ccncc3)c2)C(=O)/C=C/c2ccc(C(F)(F)F)cc2)CC1 [Example 142, (E)-N-(1-Isopropyl-piperidin-4-yl)-N-[3-(methyl-pyridin-4-yl-amino)-benzyl]-3-(4-trifluoromethyl-phenyl)-acrylamide formate]
102 | CC(C)Oc1ccc(/C=C/C(=O)N(Cc2ccc(N(C)c3ccncc3)cc2)C2CCN(Cc3ccccc3)CC2)cc1 [Example 143, (E)-N-(1-Benzyl-piperidin-4-yl)-3-(4-isopropoxy-phenyl)-N-[4-(methyl-pyridin-4-yl-amino)-benzyl]-acrylamide]
174 | CN(c1ccncc1)c1ccc(CN(C(=O)/C=C/c2ccc(C(C)(C)C)cc2)C2CCN(Cc3ccccc3)CC2)cc1 [Example 144, (E)-N-(1-Benzyl-piperidin-4-yl)-3-(4-tert-butyl-phenyl)-N-[4-(methyl-pyridin-4-yl-amino)-benzyl]-acrylamide]
69 | CN(c1ccncc1)c1ccc(CN(C(=O)/C=C/c2ccc(OC(F)F)cc2)C2CCN(Cc3ccccc3)CC2)cc1 [Example 145, (E)-N-(1-Benzyl-piperidin-4-yl)-3-(4-difluoromethoxy-phenyl)-N-[4-(methyl-pyridin-4-yl-amino)-benzyl]-acrylamide]
48 | CN(c1ccncc1)c1ccc(CN(C(=O)/C=C/c2ccc(OC(F)(F)F)cc2)C2CCN(Cc3ccccc3)CC2)cc1 [Example 146, (E)-N-(1-Benzyl-piperidin-4-yl)-N-[4-(methyl-pyridin-4-yl-amino)-benzyl]-3-(4-trifluoromethoxy-phenyl)-acrylamide]
61 | CCCOc1ccc(/C=C/C(=O)N(Cc2ccc(N(C)c3ccncc3)cc2)C2CCN(Cc3ccccc3)CC2)cc1 [Example 148, (E)-N-(1-Benzyl-piperidin-4-yl)-N-[4-(methyl-pyridin-4-yl-amino)-benzyl]-3-(4-propoxy-phenyl)-acrylamide]

Compound | IC50 [nM]
CCc1ccc(/C=C/C(=O)N(Cc2ccc(N(C)c3ccncc3)cc2)C2CCN(Cc3ccccc3)CC2)cc1 [Example 147, (E)-N-(1-Benzyl-piperidin-4-yl)-3-(4-ethyl-phenyl)-N-[4-(methyl-pyridin-4-yl-amino)-benzyl]-acrylamide] | 157
COc1ccc(/C=C/C(=O)N(Cc2ccc(N(C)c3ccncc3)cc2)C2CCN(Cc3ccccc3)CC2)cc1 [Example 149, (E)-N-(1-Benzyl-piperidin-4-yl)-3-(4-methoxy-phenyl)-N-[4-(methyl-pyridin-4-yl-amino)-benzyl]-acrylamide] | 181
COc1cccc(/C=C/C(=O)N(Cc2ccc(N(C)c3ccncc3)cc2)C2CCN(Cc3ccccc3)CC2)c1 [Example 150, (E)-N-(1-Benzyl-piperidin-4-yl)-3-(3-methoxy-phenyl)-N-[4-(methyl-pyridin-4-yl-amino)-benzyl]-acrylamide] | 293
COc1ccccc1/C=C/C(=O)N(Cc1ccc(N(C)c2ccncc2)cc1)C1CCN(Cc2ccccc2)CC1 [Example 151, (E)-N-(1-Benzyl-piperidin-4-yl)-3-(2-methoxy-phenyl)-N-[4-(methyl-pyridin-4-yl-amino)-benzyl]-acrylamide] | 222
CN(c1ccncc1)c1ccc(CN(C(=O)/C=C/c2ccc(Cl)cc2)C2CCN(Cc3ccccc3)CC2)cc1 [Example 152, (E)-N-(1-Benzyl-piperidin-4-yl)-3-(4-chloro-phenyl)-N-[4-(methyl-pyridin-4-yl-amino)-benzyl]-acrylamide] | 76
CN(c1ccncc1)c1ccc(CN(C(=O)/C=C/c2cccc(Cl)c2)C2CCN(Cc3ccccc3)CC2)cc1 [Example 153, (E)-N-(1-Benzyl-piperidin-4-yl)-3-(3-chloro-phenyl)-N-[4-(methyl-pyridin-4-yl-amino)-benzyl]-acrylamide] | 87
CN(c1ccncc1)c1ccc(CN(C(=O)/C=C/c2ccccc2Cl)C2CCN(Cc3ccccc3)CC2)cc1 [Example 154, (E)-N-(1-Benzyl-piperidin-4-yl)-3-(2-chloro-phenyl)-N-[4-(methyl-pyridin-4-yl-amino)-benzyl]-acrylamide] | 145
CN(c1ccncc1)c1ccc(CN(C(=O)/C=C/c2ccc(F)cc2)C2CCN(Cc3ccccc3)CC2)cc1 [Example 155, (E)-N-(1-Benzyl-piperidin-4-yl)-3-(4-fluoro-phenyl)-N-[4-(methyl-pyridin-4-yl-amino)-benzyl]-acrylamide] | 101
